Measured values published in patent publication US6727237B2, “Inhibitors of bacterial NAD synthetase” (priority 1998, dated 2004).
Where two headings read alike, the source gives them in different places.

Target: T1, bacterial NAD synthetase enzyme (Bacillus subtilis, UniProt P08164)
T1 sequence (P08164 2-272 limits assumed): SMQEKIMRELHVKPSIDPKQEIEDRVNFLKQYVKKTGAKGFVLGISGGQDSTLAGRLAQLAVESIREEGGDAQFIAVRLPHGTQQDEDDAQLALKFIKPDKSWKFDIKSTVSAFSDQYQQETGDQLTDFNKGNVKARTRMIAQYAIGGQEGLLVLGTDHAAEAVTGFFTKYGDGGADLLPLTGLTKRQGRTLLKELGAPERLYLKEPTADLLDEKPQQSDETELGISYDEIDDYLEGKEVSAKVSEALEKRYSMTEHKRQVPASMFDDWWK
Assay: biochemical
Type: biochemical

[1] = compound at 0.2 mM (Table 312A)

Structure (SMILES)	% Inhibition [1] [%]	further results
CC(=O)c1ccc2[nH]c(CCC[n+]3cccc4ccccc43)cc2c1 [Compound 474]	2.45	–
CC(=O)c1ccc2[nH]c(CCCCCCC[n+]3cccc4ccccc43)cc2c1 [Compound 478]	9.76	–
COc1ccc2[nH]c(CCCCCCC[n+]3cccc4ccccc43)cc2c1 [Compound 484]	39.95	–
COC(=O)c1ccc2[nH]c(CCCC[n+]3cccc4ccccc43)cc2c1 [Compound 487]	–	% Inhibition (compound at 0.1 mM (Table 314)): 9.88%
COC(=O)c1ccc2[nH]c(CCCCCC[n+]3cccc4ccccc43)cc2c1 [Compound 489]	5.87	–
COC(=O)c1ccc2[nH]c(CCCCCCC[n+]3cccc4ccccc43)cc2c1 [Compound 490]	2.96	–
O=C(O)c1ccc2[nH]c(CCCC[n+]3cccc4ccccc43)cc2c1 [Compound 493]	9.12	–
O=C(O)c1ccc2[nH]c(CCCCC[n+]3cccc4ccccc43)cc2c1 [Compound 494]	17.44	–
O=C(O)c1ccc2[nH]c(CCCCCC[n+]3cccc4ccccc43)cc2c1 [Compound 495]	6.80	–
O=C(O)c1ccc2[nH]c(CCCCCCC[n+]3cccc4ccccc43)cc2c1 [Compound 496]	36.97	–
O=C(O)c1ccc2[nH]c(CCCCCCCC[n+]3cccc4ccccc43)cc2c1 [Compound 497]	29.10	–
c1ccc2c[n+](CCCc3cc4ccccc4[nH]3)ccc2c1 [Compound 498]	47.31	–
c1ccc2c[n+](CCCCc3cc4ccccc4[nH]3)ccc2c1 [Compound 499]	25.59	–
c1ccc2c[n+](CCCCCCCc3cc4ccccc4[nH]3)ccc2c1 [Compound 502]	44.08	–
FC(F)(F)c1ccc2cc(CCCC[n+]3ccc4ccccc4c3)[nH]c2c1 [Compound 505]	25.51	–
FC(F)(F)c1ccc2cc(CCCCCCCC[n+]3ccc4ccccc4c3)[nH]c2c1 [Compound 509]	78.00	–
Cc1ccc2[nH]c(CCC[n+]3ccc4ccccc4c3)cc2c1 [Compound 510]	20.99	–
Cc1ccc2[nH]c(CCCC[n+]3ccc4ccccc4c3)cc2c1 [Compound 511]	11.02	–
Cc1ccc2[nH]c(CCCCCCC[n+]3ccc4ccccc4c3)cc2c1 [Compound 514]	22.32	–
Cc1ccc2[nH]c(CCCCCCCC[n+]3ccc4ccccc4c3)cc2c1 [Compound 515]	30.39	–
Fc1cc(F)c2[nH]c(CCC[n+]3ccc4ccccc4c3)cc2c1 [Compound 516]	29.95	–
Fc1cc(F)c2[nH]c(CCCC[n+]3ccc4ccccc4c3)cc2c1 [Compound 517]	34.72	–
Fc1cc(F)c2[nH]c(CCCCCCC[n+]3ccc4ccccc4c3)cc2c1 [Compound 520]	55.83	–
Fc1cc(F)c2[nH]c(CCCCCCCC[n+]3ccc4ccccc4c3)cc2c1 [Compound 521]	29.59	–
O=[N+]([O-])c1cc([N+](=O)[O-])c2[nH]c(CCC[n+]3ccc4ccccc4c3)cc2c1 [Compound 522]	35.74	–
O=[N+]([O-])c1cc([N+](=O)[O-])c2[nH]c(CCCC[n+]3ccc4ccccc4c3)cc2c1 [Compound 523]	18.12	–

Structure (SMILES)	% Inhibition [1] [%]	further results
O=[N+]([O-])c1cc([N+](=O)[O-])c2[nH]c(CCCCCC[n+]3ccc4ccccc4c3)cc2c1 [Compound 525]	8.39	–
O=[N+]([O-])c1cc([N+](=O)[O-])c2[nH]c(CCCCCCC[n+]3ccc4ccccc4c3)cc2c1 [Compound 526]	42.77	–
O=[N+]([O-])c1cc([N+](=O)[O-])c2[nH]c(CCCCCCCC[n+]3ccc4ccccc4c3)cc2c1 [Compound 527]	73.78	–
CCCCc1ccc2[nH]c(CCC[n+]3ccc4ccccc4c3)cc2c1 [Compound 528]	65.81	–
CCCCc1ccc2[nH]c(CCCCCCCC[n+]3ccc4ccccc4c3)cc2c1 [Compound 533]	24.68	–
CC(C)c1ccc2[nH]c(CCC[n+]3ccc4ccccc4c3)cc2c1 [Compound 534]	26.99	–
CC(C)c1ccc2[nH]c(CCCC[n+]3ccc4ccccc4c3)cc2c1 [Compound 535]	12.61	–
c1ccc(-c2ccc3[nH]c(CCCC[n+]4ccc5ccccc5c4)cc3c2)cc1 [Compound 541]	–	% Inhibition (compound at 0.1 mM (Table 314)): 10.26%
c1ccc(-c2ccc3[nH]c(CCCCCCC[n+]4ccc5ccccc5c4)cc3c2)cc1 [Compound 544]	19.66	–
O=[N+]([O-])c1ccc2[nH]c(CCC[n+]3ccc4ccccc4c3)cc2c1 [Compound 546]	–	% Inhibition (compound at 0.1 mM (Table 314)): 4.72%
O=[N+]([O-])c1ccc2[nH]c(CCCCCCCC[n+]3ccc4ccccc4c3)cc2c1 [Compound 551]	50.05	–
c1ccc(C(c2ccccc2)(c2ccccc2)c2ccc3[nH]c(CCCCCC[n+]4ccc5ccccc5c4)cc3c2)cc1 [Compound 555]	30.89	–
Fc1ccc2[nH]c(CCC[n+]3ccc4ccccc4c3)cc2c1 [Compound 558]	1.27	–
Fc1ccc2[nH]c(CCCC[n+]3ccc4ccccc4c3)cc2c1 [Compound 559]	33.24	–
Fc1ccc2[nH]c(CCCCCC[n+]3ccc4ccccc4c3)cc2c1 [Compound 561]	24.70	–
Fc1ccc2[nH]c(CCCCCCCC[n+]3ccc4ccccc4c3)cc2c1 [Compound 563]	22.68	–
c1ccc(Oc2ccc3[nH]c(CCCCCC[n+]4ccc5ccccc5c4)cc3c2)cc1 [Compound 567]	22.51	–
c1ccc(Oc2ccc3[nH]c(CCCCCCCC[n+]4ccc5ccccc5c4)cc3c2)cc1 [Compound 569]	34.84	–
O=C(c1ccccc1)c1ccc2[nH]c(CCCC[n+]3ccc4ccccc4c3)cc2c1 [Compound 571]	17.47	–
O=C(c1ccccc1)c1ccc2[nH]c(CCCCCCC[n+]3ccc4ccccc4c3)cc2c1 [Compound 574]	11.95	–
O=C(c1ccccc1)c1ccc2[nH]c(CCCCCCCC[n+]3ccc4ccccc4c3)cc2c1 [Compound 575]	42.01	–
FC(F)(F)c1ccc2[nH]c(CCC[n+]3ccc4ccccc4c3)cc2c1 [Compound 576]	2.05	–
FC(F)(F)c1ccc2[nH]c(CCCC[n+]3ccc4ccccc4c3)cc2c1 [Compound 577]	20.58	–
FC(F)(F)c1ccc2[nH]c(CCCCCCCC[n+]3ccc4ccccc4c3)cc2c1 [Compound 581]	21.66	–
CC(=O)c1ccc2[nH]c(CCC[n+]3ccc4ccccc4c3)cc2c1 [Compound 582]	6.13	–
CC(=O)c1ccc2[nH]c(CCCC[n+]3ccc4ccccc4c3)cc2c1 [Compound 583]	31.37	–

Structure (SMILES)	% Inhibition [1] [%]	further results
CC(=O)c1ccc2[nH]c(CCCCCCC[n+]3ccc4ccccc4c3)cc2c1 [Compound 586]	2.01	–
COc1ccc2[nH]c(CCC[n+]3ccc4ccccc4c3)cc2c1 [Compound 588]	2.49	–
COc1ccc2[nH]c(CCCCCC[n+]3ccc4ccccc4c3)cc2c1 [Compound 591]	18.59	–
COc1ccc2[nH]c(CCCCCCC[n+]3ccc4ccccc4c3)cc2c1 [Compound 592]	18.70	–
COC(=O)c1ccc2[nH]c(CCC[n+]3ccc4ccccc4c3)cc2c1 [Compound 594]	2.77	–
COC(=O)c1ccc2[nH]c(CCCC[n+]3ccc4ccccc4c3)cc2c1 [Compound 595]	17.94	–
O=C(O)c1ccc2[nH]c(CCC[n+]3ccc4ccccc4c3)cc2c1 [Compound 600]	3.10	–
O=C(O)c1ccc2[nH]c(CCCC[n+]3ccc4ccccc4c3)cc2c1 [Compound 601]	2.22	–
O=C(O)c1ccc2[nH]c(CCCCCCC[n+]3ccc4ccccc4c3)cc2c1 [Compound 604]	34.10	–
CN(C)c1ccc(C(=O)OCCCCCCCc2cc3cc(Oc4ccccc4)ccc3[nH]2)cc1 [Compound 619]	19.53	–
CC(=O)c1ccc2[nH]c(CCCCCCCOC(=O)c3ccc(N(C)C)cc3)cc2c1 [Compound 637]	–	% Inhibition (compound at 0.1 mM (Table 314)): 4.42%
O=C(OCCCCCCCc1cc2cc(Oc3ccccc3)ccc2[nH]1)c1cccnc1 [Compound 685]	7.81	–
O=C(OCCCCCCCc1cc2ccc(C(F)(F)F)cc2[nH]1)c1ccncc1 [Compound 697]	4.28	–
O=[N+]([O-])c1ccc2[nH]c(CCCC[n+]3ccccc3)cc2c1 [Compound 712]	12.59	–
FC(F)(F)c1ccc2cc(CCCC[n+]3ccccc3)[nH]c2c1 [Compound 715]	–	% Inhibition (compound at 0.1 mM (Table 314)): 20.73%
COc1ccc2c(ccn2CCCCCOC(=O)Cc2ccc([N+](C)(C)C)cc2)c1 [Compound 741]	30.47	–
COc1ccc2c(ccn2CCCCOC(=O)c2ccc[n+](C)c2)c1 [Compound 760]	2.28	–
COc1ccc2c(ccn2CCCCCOC(=O)c2ccc[n+](C)c2)c1 [Compound 761]	6.88	–
COc1ccc2c(ccn2CCCCCCOC(=O)c2ccc[n+](C)c2)c1 [Compound 762]	40.05	–
CN(C)c1ccc(CC(=O)OCCCCCn2ccc3cc([N+](=O)[O-])ccc32)cc1 [Compound 849]	–	% Inhibition (compound at 0.1 mM (Table 314)): 90.92%; IC50 (lead compounds (Table 318A), read-out: IC 50): 70 µM
C[n+]1cccc(C(=O)OCCCCCCCCn2ccc3cc([N+](=O)[O-])ccc32)c1 [Compound 867]	70.33	–
C[N+](C)(C)c1cccc(C(=O)OCCCCc2cc3ccc(C(F)(F)F)cc3[nH]2)c1 [Compound 868]	–	% Inhibition (compound at 0.25 mM): 13.5%
C[N+](C)(C)c1cccc(C(=O)OCCCCCCCc2cc3ccc(C(F)(F)F)cc3[nH]2)c1 [Compound 869]	–	IC50: 40 µM
C[N+](C)(C)c1cccc(C(=O)OCCCCCCCCc2cc3ccc(C(F)(F)F)cc3[nH]2)c1 [Compound 870]	–	% Inhibition (compound at 0.25 mM): 63.1%
